This passage reports inhibition and EC50 results from US9090599B2, “Heteroarylmethyl amides” (Hoffman-La Roche Inc., priority 2010, dated 2015).

What is called inhibition is the relative decrease from the control value, in per cent. Broadly, the EC50 is the midpoint of the concentration-response curve.

One experiment concerns the target T1, human CB2 receptor (Homo sapiens, UniProt P34972).
T1 construct: expressed in transfected cells; host or cells: human embryonic kidney (HEK) cells, Semliki Forest Virus system, membrane preparations
The experiment is described as follows: CB2 receptor affinity, [3H]-CP-55,940 displacement, HEK cell membranes. The class given is binding. As to conditions: 10 μM compound, radioligand [3H]-CP-55,940. The gist of the method: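 Membranes from HEK cells transiently expressing human CB2 (Semliki Forest Virus) incubated with [3H]-CP-55,940 ± compound at 10 μM. Bound ligand separated by glass-fibre filtration and counted by scintillation; reported as % inhibition at 10 μM.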

The target of a further experiment is T2, human CB1 receptor (Homo sapiens, UniProt P21554).
T2 construct: expressed in transfected cells; host or cells: human embryonic kidney (HEK) cells, Semliki Forest Virus system, membrane preparations
The experiment is described as follows: CB1 receptor affinity, [3H]-CP-55,940 displacement, HEK cell membranes. The class given is binding. As to conditions: read-out: CB1 receptor affinity [% inhibition @ 10 μM]. In short, it runs like this:
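Membranes from HEK cells transiently expressing human CB1 (Semliki Forest Virus system) incubated with [3H]-CP-55,940 with or without test compound. Bound and free ligand separated by glass-fibre filtration and bound radioactivity counted by scintillation. Compounds tested at 10 μM, values reported as % inhibition of radioligand binding.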

The next experiment relates to ABCA1 protein. The experiment is described as follows: Detection of upregulation of ABCA1 protein in THP-1 macrophage cells (ApoA-I binding, high content imaging). The class given is cell-based. As to conditions: 24 hrs with compound, AlexaFluor 647 ApoA-I binding, read-out: ABCA1 protein increasing efficacy EC50. How it is done: The ability of compounds of the invention to increase the level of ABCA1 protein is determined in replicate cultures of THP-1 macrophage cells in 96-well microplates. Cells are plated at an initial density of 100,000 cells/well in 100 μl medium and differentiated to adherent macrophages with the addition of PMA (100 nM) for 68 hrs in 10% fetal bovine serum, 3 μl/L of b-mercaptoethanol, RPMI-1640 medium. Then, cells are incubated with RPMI-1640 medium containing 1% FCS, 25 μg/ml acetylated LDL, for 24 hours at 37°. Following incubation with acetylated LDL, cells are washed twice with 50 μl PBS and incubated with 100 μl of RPMI-1640 medium containing the compound of interest solubilized in DMSO for an additional 24 hrs. The final DMSO concentration in presence of cells is maintained at 0.5%. ApoA-I binding assay using High Content Image Analysis is initiated by replacing with fresh medium, RPMI without Phenol Red, 0.2% BSA containing AlexaFluor®647 labeled ApoA-I for 2 h/37° C./5% CO2. Then, cells are fixed with 4% Formaldehyde in PBS (15 min, RT). Following Nuclei are stained with Hoechst solution (3 μM PBS) and Cytoplasm with Cell Mask Blue (2 μg/ml PBS), 15 min, RT. Finally the stained cells are fixed with a second round of formaldehyde treatment. Fixed stained cells are washed and kept in PBS at 4° C. and can be read immediately until one month after preparation.
The Alexa Fluor 647-labeled Apolipoprotein A-I (20 nM) was prepared as follows: Human recombinant Apolipoprotein A-I (ApoA-I) was exchanged to a buffer of 0.02 M NaHCO3 at pH 8.2 on an NAP desalting column (GE Healthcare) and brought to a concentration to 40 μM (1.13 mg/ml) by adjustment with the same buffer. The ApoA-I was fluorescently labeled by incubation with Alexa Fluor carboxylic acid succimidyl ester. (Alexa Fluor 647, Invitrogen A-20006) at a 2:1 molar ratio (Alexa to ApoA-I) for 1 h under shaking at RT. The remaining unconjugated label was removed by buffer exchange to 0.02M NaHCO3 at pH 8.2.
Imaging and data collection were performed on an OPERA confocal microplate imaging reader using a 20× water immersion objective and UV360 or 405 laser to identify the cell nuclei and a 635 laser to identify the fluorescent ApoA-I. Eight fields of view are captured per well. Image capture and analysis was performed with the Acapella software. Background fluorescence detected in control wells without ApoA-I was subtracted.
Using XLfit3 program (ID Business Solutions Ltd. UK), the model 205 for Dose Response One Site is used to calculate the EC50 values. […] Preferably, the compounds of the present invention have EC50 values in a range of 0.1 μM to 3 μM.

The mark [1] stands for this setting: 10 μM compound, radioligand [3H]-CP-55,940.

Read-outs that look alike come from different tables or passages of the source.

T2 sequence (P21554 whole entry): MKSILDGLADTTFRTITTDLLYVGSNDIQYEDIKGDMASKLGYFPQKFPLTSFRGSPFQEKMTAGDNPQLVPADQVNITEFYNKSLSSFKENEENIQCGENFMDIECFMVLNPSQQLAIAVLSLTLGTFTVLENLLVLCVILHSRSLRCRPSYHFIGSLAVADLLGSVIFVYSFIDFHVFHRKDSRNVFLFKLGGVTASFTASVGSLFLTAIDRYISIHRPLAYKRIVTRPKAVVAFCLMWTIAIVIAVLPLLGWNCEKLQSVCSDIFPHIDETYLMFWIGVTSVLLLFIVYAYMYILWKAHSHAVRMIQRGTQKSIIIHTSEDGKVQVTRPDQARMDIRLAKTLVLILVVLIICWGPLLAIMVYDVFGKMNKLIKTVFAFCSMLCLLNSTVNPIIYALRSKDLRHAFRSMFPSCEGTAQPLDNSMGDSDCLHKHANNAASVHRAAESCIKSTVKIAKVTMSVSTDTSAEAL
T1 sequence (P34972 whole entry): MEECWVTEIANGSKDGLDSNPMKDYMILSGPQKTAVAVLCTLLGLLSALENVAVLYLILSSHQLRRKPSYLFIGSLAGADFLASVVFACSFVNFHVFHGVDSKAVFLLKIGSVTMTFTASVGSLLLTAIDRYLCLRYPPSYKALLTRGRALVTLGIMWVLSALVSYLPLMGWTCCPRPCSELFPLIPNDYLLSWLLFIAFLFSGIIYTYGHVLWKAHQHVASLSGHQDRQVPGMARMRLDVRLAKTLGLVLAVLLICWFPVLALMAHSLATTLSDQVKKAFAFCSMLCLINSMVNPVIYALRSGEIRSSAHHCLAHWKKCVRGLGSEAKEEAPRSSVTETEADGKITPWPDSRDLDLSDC

For `CCCc1nc(CNC(=O)c2cnc(OCC3CC3)c(-c3ccc(Cl)cc3)c2)cs1` [Example 11, 5-(4-chloro-phenyl)-6-cyclopropylmethoxy-N-(2-propyl-thiazol-4-ylmethyl)-nicotinamide], the inhibition at 10 µM stood at 12% on human CB2 receptor and 25% at human CB1 receptor. The EC50 with ABCA1 protein turned out to be 1500 nM.
Consider `CC(C)c1nc(CNC(=O)c2cnc(OCC(F)(F)F)c(-c3ccc(Cl)cc3)c2)cs1` [Example 8, 5-(4-chloro-phenyl)-N-(2-isopropyl-thiazol-4-ylmethyl)-6-(2,2,2-trifluoro-ethoxy)-nicotinamide], for which the inhibition at 10 µM on human CB2 receptor came to 10%; on human CB1 receptor, 24%. In the experiment on ABCA1 protein, the EC50 was found to be 900 nM.
In the case of `O=C(NCc1nc(C(F)(F)F)no1)c1cc(-c2ccc(Cl)cc2)c(OCC(F)(F)F)nn1` [Example 46, 5-(4-chloro-phenyl)-6-(2,2,2-trifluoro-ethoxy)-pyridazine-3-carboxylic acid (3-trifluoromethyl-[1,2,4]oxadiazol-5-ylmethyl)-amide], the inhibition at 10 µM on human CB2 receptor came to 0%; at human CB1 receptor (setting [1]), 30%. Also, the EC50 in the experiment with ABCA1 protein is 780 nM.
For `O=C(NCc1nc(C2CC2)no1)c1cc(-c2ccc(Cl)cc2)c(OCC(F)(F)F)nn1` [Example 48, 5-(4-chloro-phenyl)-6-(2,2,2-trifluoro-ethoxy)-pyridazine-3-carboxylic acid (3-cyclopropyl-[1,2,4]oxadiazol-5-ylmethyl)-amide] the same measures were 19%, 35% and 730 nM.
In the case of `O=C(NCc1cc(C(F)(F)F)on1)c1cc(-c2ccc(Cl)cc2)c(OCC(F)(F)F)nn1` [Example 67, 5-(4-chloro-phenyl)-6-(2,2,2-trifluoro-ethoxy)-pyridazine-3-carboxylic acid (5-trifluoromethyl-isoxazol-3-ylmethyl)-amide], the inhibition at 10 µM was 3% at human CB2 receptor and 25% at human CB1 receptor (setting [1]). Moreover, the EC50 in the experiment on ABCA1 protein is 780 nM.
In the case of `CCCc1nc(CNC(=O)c2cnc(OCC(F)(F)F)c(-c3ccc(Cl)cc3)c2)cs1` [Example 9, 5-(4-chloro-phenyl)-N-(2-propyl-thiazol-4-ylmethyl)-6-(2,2,2-trifluoro-ethoxy)-nicotinamide], the inhibition at 10 µM on human CB2 receptor worked out at 1%; at human CB1 receptor (setting [1]), 18%. Moreover, the EC50 with ABCA1 protein was 900 nM.
With `Cc1cc(-c2cc(C(=O)NCc3nc(C(F)(F)F)no3)cnc2OCC(F)(F)F)ccc1Cl` [Example 72, 5-(4-chloro-3-methylphenyl)-6-(2,2,2-trifluoroethoxy)-N-((3-(trifluoromethyl)-1,2,4-oxadiazol-5-yl)methyl)nicotinamide], the inhibition at 10 µM on human CB2 receptor was -1%; at human CB1 receptor (setting [1]), 34%. In addition, the EC50 in the experiment with ABCA1 protein was found to be 500 nM.
As for `COc1cc(CNC(=O)c2cnc(OCC(F)(F)F)c(-c3ccc(F)c(F)c3)c2)on1` [Example 99, 5-(3,4-difluorophenyl)-N-((3-methoxyisoxazol-5-yl)methyl)-6-(2,2,2-trifluoroethoxy)nicotinamide], the inhibition at 10 µM came out at 9% at human CB2 receptor and 20% at human CB1 receptor (setting [1]). In addition, the EC50 in the experiment with ABCA1 protein is 1250 nM.
For `COc1cc(CNC(=O)c2ncc(OCC(F)(F)F)c(-c3ccc(Cl)c(Cl)c3)n2)on1` [Example 25, 4-(3,4-dichlorophenyl)-N-((3-methoxyisoxazol-5-yl)methyl)-5-(2,2,2-trifluoroethoxy)pyrimidine-2-carboxamide], the values for the inhibition at 10 µM at human CB2 receptor and on human CB1 receptor (setting [1]) were 17% and 11%, respectively. Besides, the EC50 in the experiment with ABCA1 protein was determined as 1470 nM.
Take `COc1cc(CNC(=O)c2cnc(OCC(F)(F)F)c(-c3ccc(Cl)cc3)c2)on1` [Example 5, 5-(4-chloro-phenyl)-N-(3-methoxy-isoxazol-5-ylmethyl)-6-(2,2,2-trifluoro-ethoxy)-nicotinamide]: the inhibition at 10 µM at human CB2 receptor was 5%; at human CB1 receptor (setting [1]), 48%. Besides, the EC50 in the experiment with ABCA1 protein was 2100 nM.
Turning to `Cc1ccc(-c2cc(C(=O)NCc3nc(C(F)(F)F)no3)cnc2OCC(F)(F)F)cc1` [Example 79, 5-p-tolyl-6-(2,2,2-trifluoroethoxy)-N-((3-(trifluoromethyl)-1,2,4-oxadiazol-5-yl)methyl)nicotinamide], the inhibition at 10 µM on human CB2 receptor worked out at 4%; on human CB1 receptor (setting [1]), 42%. Moreover, in the experiment on ABCA1 protein, the EC50 was found to be 1170 nM.
For `CC(C)c1cc(CNC(=O)c2ccc(OCC(F)(F)F)c(-c3ccc(Cl)cc3)n2)on1` [Example 64, 6-(4-chloro-phenyl)-5-(2,2,2-trifluoro-ethoxy)-pyridine-2-carboxylic acid (3-isopropyl-isoxazol-5-ylmethyl)-amide] the same measures were 7%, 33% and 860 nM.
For `O=C(NCc1nc(C(F)(F)F)no1)c1cc(-c2ccc(Cl)cc2)c(OCC2CC2)cn1` [Example 18, 4-(4-chlorophenyl)-5-(cyclopropylmethoxy)-N-((3-(trifluoromethyl)-1,2,4-oxadiazol-5-yl)methyl)picolinamide] the same measures were 24%, 28% and 6910 nM.
Turning to `CC(C)c1cc(CNC(=O)c2ncc(OCC(F)(F)F)c(-c3ccc(Cl)cc3)n2)on1` [Example 44, 4-(4-chloro-phenyl)-5-(2,2,2-trifluoro-ethoxy)-pyrimidine-2-carboxylic acid (3-isopropyl-isoxazol-5-ylmethyl)-amide], the inhibition at 10 µM was 8% on human CB2 receptor and 29% on human CB1 receptor (setting [1]). For the same compound, in the experiment on ABCA1 protein, the EC50 was found to be 1020 nM.
In the case of `Cc1cc(-c2cc(C(=O)NCc3csc(C4CC4)n3)ncc2OCC(F)(F)F)ccc1Cl` [Example 76, 4-(4-chloro-3-methylphenyl)-N-((2-cyclopropylthiazol-4-yl)methyl)-5-(2,2,2-trifluoroethoxy)picolinamide], the inhibition at 10 µM was 9% on human CB2 receptor and 8% on human CB1 receptor (setting [1]). In the experiment with ABCA1 protein, the EC50 turned out to be 1640 nM.
For `CCc1nc(CNC(=O)c2cnc(OCC(F)(F)F)c(-c3ccc(Cl)cc3)c2)cs1` [Example 7, 5-(4-chloro-phenyl)-N-(2-ethyl-thiazol-4-ylmethyl)-6-(2,2,2-trifluoro-ethoxy)-nicotinamide] the same measures were 6%, 22% and 1500 nM.
Regarding `C[C@H](Oc1ncc(C(=O)NCc2nc(C(F)(F)F)no2)cc1-c1ccc(Cl)cc1)C(F)(F)F` [Example 38, (S)-5-(4-chlorophenyl)-N-((3-(trifluoromethyl)-1,2,4-oxadiazol-5-yl)methyl)-6-(1,1,1-trifluoropropan-2-yloxy)nicotinamide], the figures for the inhibition at 10 µM on human CB2 receptor and at human CB1 receptor (setting [1]) were -2% and 32%, respectively. The EC50 in the experiment with ABCA1 protein is 950 nM.
For `O=C(NCc1nc(C(F)(F)F)no1)c1cnc(OCC(F)(F)F)c(-c2ccc(F)c(F)c2)c1` [Example 89, 5-(3,4-difluorophenyl)-6-(2,2,2-trifluoroethoxy)-N-((3-(trifluoromethyl)-1,2,4-oxadiazol-5-yl)methyl)nicotinamide], the inhibition at 10 µM at human CB2 receptor was 4%; at human CB1 receptor (setting [1]), 28%. Also, the half-maximal effective concentration (EC50) in the experiment with ABCA1 protein is 1960 nM.
For `O=C(NCc1nc(C(F)(F)F)no1)c1cnc(OCC(F)(F)F)c(-c2ccc(Cl)cc2)c1` [Example 15, 5-(4-chloro-phenyl)-6-(2,2,2-trifluoro-ethoxy)-N-(3-trifluoromethyl-[1,2,4]oxadiazol-5-ylmethyl)-nicotinamide] the same measures were -6%, 45% and 840 nM.
